Values joined by “and” are separate entries in the source; they are usually repeats but may differ in a detail not shown here. Equal entries are not always repeated. Where two headings read alike, the source gives them in different places.
Columns and labels:
[1] = Two-photon absorption cross section; format: physicochemical; settings: dichloromethane
Protocol: The two-photon absorption cross section spectra of the sample was determined upon direction comparison to Rhodamine B. The sample was irradiated with an OpoletteTM 355II (pulse width ≤ 100 fs, 80 MHz repetition rate, Spectra Physics Inc.) laser. The experimental excitation and detection conditions were conducted with negligible reabsorption processes, which could affect two-photon absorption measurements. The quadratic dependence of the two-photon induced luminescence intensity on the excitation power was verified at an excitation wavelength of 800 nm. The two-photon absorption cross section was calculated using the following equation:1 σ2,sample=σ2,reference×Φreference×creference×Isample×nsample/Φsample×csample×Ireference×nreference,
σ2 = two-photon cross section, Φ = luminescence quantum yield, c = concentration, I = integrated luminescence intensity, n = refractive index

[2] = Emission and luminescence quantum yield; format: physicochemical; settings: acetonitrile
Protocol: The absorption spectra of the sample was measured with a SpectraMax M2 Spectrometer (Molecular Devices). For the measurements of the emission, the sample was irradiated at 355 nm with a NT342B Nd-YAG pumped optical parametric oscillator (Ekspla). The emission was focused at right angle to the excitation pathway and directed to a Princeton Instruments Acton SP-2300i monochromator. The signal was detected with a XPI-Max 4 CCD camera (Princeton Instruments).
The sample was prepared in an acetonitrile solution with an absorption of 0.1 at 355 nm. The sample was irradiated at 355 nm with a NT342B Nd-YAG pumped optical parametric oscillator (Ekspla). The emission was focused at right angle to the excitation pathway and directed to a Princeton Instruments Acton SP-2300i monochromator. The signal was detected with a XPI-Max 4 CCD camera (Princeton Instruments). The luminescence quantum yields were determined by comparison with the reference [Ru(2,2′-bipyridine)3]Cl2 in acetonitrile (Φem = 5.9%)[58] applying the following formula:2 Φem,sample=Φem,reference×Freference/Fsample×Isample/Ireference×nsample/nreference^2, 3 F=1−10^-A. Φem = luminescence quantum yield, F = fraction of light absorbed, I = integrated emission intensities, n = refractive index, A = absorbance of the sample at irradiation wavelength.

Excited state lifetime = format: physicochemical; settings: for τ air, excited state lifetime: air saturated acetonitrile; for τ degassed, excited state lifetime: degassed acetonitrile
Protocol: The sample was prepared in an air saturated as well as a degassed acetonitrile solution with an absorption of 0.2 at 355 nm. The sample was irradiated at 355 nm with a NT342B Nd-YAG pumped optical parametric oscillator (Ekspla). The emission was focused at right angle to the excitation pathway and directed to a Princeton Instruments Acton SP-2300i monochromator. The signal was detected with a R928 photomultiplier tube (Hamamatsu).

[3] = Singlet oxygen quantum yield, direct evaluation (1O2 phosphorescence); format: physicochemical
Protocol: Direct evaluation: the sample was prepared in an air-saturated acetonitrile or deuterated water solution with an absorption of 0.2 at 450 nm. The sample was irradiated at 450 nm with a mounted M450LP1 LED (Thorlabs), whose light was focused with aspheric condenser lenses. Using a T-Cube LED Driver (Thorlabs), the intensity of the irradiation was varied and monitored with an optical power and energy meter. The emission was focused at right angle to the excitation pathway and directed to a Princeton Instruments Acton SP-2300i monochromator. To cut off light at wavelengths shorter than 850 nm, a longpass glass filter was placed in front of the monochromator entrance slit. The signal was detected with an EO-817L IR-sensitive liquid-nitrogen cooled germanium diode detector (North Coast Scientific Corp.). The luminescence signal, centered at 1270 nm, was measured from 1100 to 1400 nm. The obtained data were analyzed upon plotting the integrated luminescence peaks against the percentage of the irradiation intensity. The slope of the linear regression was calculated and compared with the reference Rose Bengal (Φ = 76%)[59]. The absorption of the sample was corrected with an absorption correction factor. The singlet oxygen quantum yields were calculated using the following formula:4 Φsample=Φreference×Ssample/Sreference×Ireference/Isample, 5 I=I0×1−10^-A.
Φ = singlet oxygen quantum yield, S = slope of the linear regression of the plot of the areas of the singlet oxygen luminescence peaks against the irradiation intensity, I = absorption correction factor, I0 = light intensity of the irradiation source, and A = absorption of the sample at irradiation wavelength.

[4] = Photostability (absorption spectra upon irradiation); format: physicochemical; settings: 450 nm, 0 to 10 min (13.2 J cm^−2), air-saturated acetonitrile
Protocol: The sample was prepared in an air-saturated acetonitrile solution. Using a Atlas Photonics LUMOS BIO irradiator, the sample was constantly irradiated at 450 nm in time intervals from 0 to 10 min (13.2 J cm^−2). The absorption spectra from 350 to 700 nm was monitored with a SpectraMax M2 Microplate Reader (Molecular Devices) at each time interval. As positive and negative controls, respectively, [Ru(2,2′-bipyridine)3]Cl2 and Protoporphyrin IX were used.

[5] = Distribution coefficient (shake-flask, octanol/PBS); format: physicochemical; settings: ICP-MS
Protocol: Using the “shake-flask” method, the distribution coefficient between the PBS and octanol phase of the sample was determined. The PBS and octanol phases were previously saturated in each other. The sample was dissolved in the phase, which is dissolving best the compound. This solution was added to an equal volume of the other phase and mixed at 190 rpm overnight with a sample mixer. Following this, the solutions were equilibrated for 4 h. The phases were carefully separated from each other. The amount of the sample in each phase was determined by ICP-MS. The evaluation was repeated three times and the ratio between the organic and aqueous phase determined.

[6] = test system: human cervical carcinoma (HeLa) cells; assay: (Photo-)cytotoxicity on 2D cell monolayers, HeLa; format: cell-based; settings: for IC50: 1-3 as chloride salts; for PI (480 nm): dark vs 480 nm; for PI (540 nm): dark vs 540 nm
Protocol: (§1) A total of 4 × 10^3 cells were seeded on 96-well plates and allowed to adhere overnight. The cells were treated with increasing concentrations of the sample diluted in cell media achieving a total volume of 200 μL. The cells were incubated with the sample for 8 h and, after this time, the medium refreshed. To study the phototoxic effect of the sample, the cells were exposed to 480 nm (spectral half-width: 20 nm, 10 min, 5.2 mW cm^−2, 3.1 J cm^−2) or 540 nm (spectral half-width: 30 nm, 40 min, 4.0 mW cm^−2, 9.5 J cm^−2) light using an Atlas Photonics LUMOS BIO irradiator. To study the dark cytotoxicity of the sample, the cells were not irradiated and the medium exchanged. The cells were grown for an additional 40 h at 37 °C. After this time, the medium was replaced with fresh medium containing resazurin with a final concentration of 0.2 mg mL^−1. The cells were incubated for 4 h and the amount of the fluorescent product resorufin determined (λex = 540 nm, λem = 590 nm) with a SpectraMax M2 Microplate Reader (Molecular Devices). The obtained data was analyzed with the GraphPad Prism software.

[7] = test system: noncancerous retinal pigment epithelium (RPE-1) cells
Protocol: as §1

[8] = test system: human glioblastoma astrocytoma (U373) cells; assay: (Photo-)cytotoxicity on 2D cell monolayers, U373; settings: for PI (480 nm): U373, dark vs 480 nm; for PI (540 nm): U373, dark vs 540 nm; for IC50: 1-3 as chloride salts;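 for all read-outs here: Resazurin-to-resorufin fluorescence viability readout, 8 h compound exposure then medium change, light dose 3.1 J cm^−2 at 480 nm or 9.5 J cm^−2 at 540 nm, analysed 40 h later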
Protocol: as §1

[9] = test system: noncancerous retinal pigment epithelium (RPE-1) cells; assay: (Photo-)cytotoxicity on 2D cell monolayers, RPE-1; settings: for PI (480 nm): RPE-1, dark vs 480 nm; for PI (540 nm): RPE-1, dark vs 540 nm; for IC50: 1-3 as chloride salts
Protocol: as §1

[10] = test system: mouse colon carcinoma (CT-26) cells; assay: (Photo-)cytotoxicity on 2D cell monolayers, CT-26; settings: for PI (480 nm): CT-26, dark vs 480 nm; for PI (540 nm): CT-26, dark vs 540 nm; for IC50: 1-3 as chloride salts
Protocol: as §1

[11] = 480 nm, read-out: IC50 480 nm (10 min, 3.1 J cm-2)
[12] = 540 nm, read-out: IC50 540 nm (40 min, 9.5 J cm-2)
[13] = read-out: IC50 480 nm (10 min, 3.1 J cm-2), U373, 480 nm
[14] = read-out: IC50 dark, U373, dark
[15] = read-out: IC50 540 nm (40 min, 9.5 J cm-2), RPE-1, 540 nm
[16] = read-out: IC50 dark, RPE-1, dark
[17] = read-out: IC50 540 nm (40 min, 9.5 J cm-2), CT-26, 540 nm
[18] = read-out: IC50 dark, CT-26, dark

| SMILES | Φem, luminescence quantum yield [2] | λem, emission maximum [2] | τ air, excited state lifetime (Excited state lifetime) | τ degassed, excited state lifetime (Excited state lifetime) | Singlet oxygen quantum yield, Direct 450 nm CH3CN [3] | photostability (change of absorption spectra upon irradiation) [4] | logD (octanol/PBS) [5] | IC50 [6, 11] | IC50 [6, 12] | PI (480 nm) [6] | PI (540 nm) [6] | IC50 ([6]; dark, read-out: IC50 dark) | IC50 [7] | PI (480 nm) [8] | PI (540 nm) [8] | IC50 [8, 13] | IC50 [8, 14] | PI (480 nm) [9] | PI (540 nm) [9] | IC50 [9, 15] | further results |
| --- | --- | --- | --- | --- | --- | --- | --- | --- | --- | --- | --- | --- | --- | --- | --- | --- | --- | --- | --- | --- | --- |
| C(=C\c1ccnc(-c2cc(/C=C/c3ccccc3)ccn2)c1)/c1ccccc1.C(=C\c1ccnc(-c2cc(/C=C/c3ccccc3)ccn2)c1)/c1ccccc1.C(=C\c1ccnc(-c2cc(/C=C/c3ccccc3)ccn2)c1)/c1ccccc1.F[P-](F)(F)(F)(F)F.F[P-](F)(F)(F)(F)F.[Ru+2] [compound 1] | 1.9% | 677 nm | 86 ns | 385 ns | 65% | no significant differences in the absorption spectra | +2.6 ± 0.4 | 29.5 µM | 48.7 µM | > 3.4 | > 2.1 | > 100 µM | 30.9 µM | > 1.9 | > 1.2 | 51.7 µM | > 100 µM | > 3.2 | > 3.2 | 31.7 µM | σ2, 2P absorption cross section [1]: 147 GM; IC50 [9, 16]: > 100 µM; PI (480 nm) [10]: > 4.9; PI (540 nm) [10]: > 3.0; IC50 [10, 17]: 33.4 µM; IC50 [10, 18]: > 100 µM |
| CN(C)c1ccc(/C=C/c2ccnc(-c3cc(/C=C/c4ccc(N(C)C)cc4)ccn3)c2)cc1.CN(C)c1ccc(/C=C/c2ccnc(-c3cc(/C=C/c4ccc(N(C)C)cc4)ccn3)c2)cc1.CN(C)c1ccc(/C=C/c2ccnc(-c3cc(/C=C/c4ccc(N(C)C)cc4)ccn3)c2)cc1.F[P-](F)(F)(F)(F)F.F[P-](F)(F)(F)(F)F.[Ru+2] [compound 2, [Ru((E,E′)-4,4′-Bis[p-(N,N-dimethylamino)styryl]-2,2′-bipyridine)3][PF6]2] | > 0.1% | 709 nm | 48 ns | 222 ns | 18% | small changes in the absorption spectra | +2.7 ± 0.4 | 29.4 µM | 52.3 µM | > 3.4 | > 1.9 | > 100 µM | 38.4 µM | > 2.0 | > 1.6 | 49.1 µM | > 100 µM | > 2.6 | > 2.0 | 49 µM | σ2, 2P absorption cross section [1]: 2175 GM; IC50 [9, 16]: > 100 µM; PI (480 nm) [10]: > 2.3; PI (540 nm) [10]: > 1.6; IC50 [10, 17]: 62.5 µM; IC50 [10, 18]: > 100 µM |
| COc1ccc(/C=C/c2ccnc(-c3cc(/C=C/c4ccc(OC)cc4)ccn3)c2)cc1.COc1ccc(/C=C/c2ccnc(-c3cc(/C=C/c4ccc(OC)cc4)ccn3)c2)cc1.COc1ccc(/C=C/c2ccnc(-c3cc(/C=C/c4ccc(OC)cc4)ccn3)c2)cc1.F[P-](F)(F)(F)(F)F.F[P-](F)(F)(F)(F)F.[Ru+2] [compound 3, [Ru((E,E′)-4,4′-Bis[p-methoxystyryl]-2,2′-bipyridine)3][PF6]2] | 1.1% | 682 nm | 76 ns | 338 ns | 52% | no significant differences in the absorption spectra | +2.3 ± 0.3 | 15.3 µM | 11.3 µM | > 6.5 | > 8.8 | > 100 µM | 53.6 µM | > 2.4 | > 1.9 | 41 µM | > 100 µM | > 1.9 | > 2.2 | 44.9 µM | σ2, 2P absorption cross section [1]: 573 GM; IC50 [9, 16]: > 100 µM; PI (480 nm) [10]: > 5.2; PI (540 nm) [10]: > 4.3; IC50 [10, 17]: 23 µM; IC50 [10, 18]: > 100 µM |
| COc1ccc(/C=C/c2ccnc(-c3cc(/C=C/c4ccc(OC)cc4)ccn3)c2)cc1.F[P-](F)(F)(F)(F)F.F[P-](F)(F)(F)(F)F.[Ru+2].c1ccc(-c2ccccn2)nc1.c1ccc(-c2ccccn2)nc1 [compound 7, [Ru(2,2′-bipyridine)2((E,E′)-4,4′-Bis[p-methoxystyryl]-2,2′-bipyridine)][PF6]2] | 2.8% | 664 nm | 96 ns | 542 ns | 75% | no significant differences in the absorption spectra | +0.5 ± 0.2 | 1.2 µM | 1.5 µM | > 83.3 | > 66.7 | > 100 µM | 3.1 µM | > 9.5 | > 7.4 | 10.5 µM | > 100 µM | > 32.3 | > 11.9 | 8.4 µM | IC50 [9, 16]: > 100 µM; PI (480 nm) [10]: > 143 and > 142.9; PI (540 nm) [10]: > 111.1; IC50 [10, 17]: 0.9 ± 0.3 µM; IC50 [10, 18]: > 100 µM |

Source: paper PMC7320011, “Rationally designed ruthenium complexes for 1- and 2-photon photodynamic therapy” (Nature Communications, 2020)
